The record followed here is patent US8119667B2, “Carbonates of fenicol antibiotics” (Schering-Plough Animal Health Corporation, priority 2005, dated 2012).

The nature of series [1]: Syringeability of dosing solutions (dripping-syringe method). It counts as physicochemical. To be noted: prodrug concentration equivalent to 300 mg/ml florfenicol, Triacetin/benzyl alcohol - 2:1 (vol/vol). The protocol:
Table 4, below, provides evaluations of the syringeability of dosing solutions of selected florfenicol benzylic carbonate prodrugs at concentrations equivalent to 300 mg/ml florfenicol (30% weight/volume).
High concentrations of fenicol or fenicol drug contained in a fenicol prodrug are often necessary for convenient administration of the necessary amount of the desired amount of the antibiotic. Due to the limited solubility of fenicols in many organic solvents or mixtures of solvents acceptable for injectable formulations the choice of solvents for preparation of highly concentrated florfenicol solutions is limited. As a result highly concentrated solutions of fenicol drugs in organic solvents or solvent mixtures may become highly viscous and difficult to administer by a syringe. Therefore the ability of fenicol benzylic carbonate prodrugs to dissolve in a wider range of organic solvents or mixtures of solvents acceptable for injectable formulations offered the potential to prepare highly concentrated solutions for injections with lower viscosity. […] Test solutions of florfenicol benzylic carbonates containing concentrations of florfenicol (mg/mL) equivalent to the concentration present in Nuflor® formulation were prepared. Syringeabilities of the solutions were evaluated by means of the “dripping syringe” method in which the dripping times (sec) of equal volumes of such solutions under free gravitational flow conditions from a vertically positioned syringe were measured at 15° C. After removing the plunger from a 5 ml polyethylene disposable syringe (5 ml Luer, Norm-Ject Zentrish/Henke Saas Wolf GMBH) and fitting the syringe with a disposable needle (B-D® 16G1 Precision Glide/BentonDickinson & CO) the test solutions were loaded from the top into the syringe and the time necessary for the free flow of 2 mL of solution (between 3 ml and 1 ml marks) was recorded in triplicate. The syringeabilities relative to Nuflor® were calculated by dividing the dripping time for the test solutions (entries 1-12) by the dripping time measured for the commercial sample of Nuflor® formulation (entry 13) As it is evident from the results in Table 4 the syringeabilities of tested solutions containing benzyl alcohol as viscosity diluent had relative syringeabilities <1.00 and were therefore better than Nuflor® (30% weight/volume florfenicol solution in propylene glycol/polyethylene glycol 300/2-methyl pyrolidinone). Due to their better syringeability these solutions represent more favorable formulations for injectable delivery of florfenicol. Solution of the florfenicol benzylic carbonate of the example 2 in triacetin/2-pyrolidinone—1/1 lacking the benzyl alcohol viscosity diluent was the only solution with syringeability poorer that than that of Nuflor® (entry 5).

A short description of series [2]: Solubility in triacetin/benzyl alcohol 2:1 (volume/volume) solvent mixture. The format is physicochemical. To be noted: 20° C. As for the experimental part: Florfenicol parent drug was not soluble in triacetin/benzyl alcohol 2:1 (volume/volume) even at concentrations as low as 10% (weight/volume). […] The combination of prodrug of Example 14 at 275 mg/ml and florfenicol at 100 mg/ml was soluble in triacetin/benzyl alcohol 2:1 (volume/volume) and provided a stable solution with 30% (weight/volume) content of florfenicol (Table 4, supra, entry 12).

The nature of series [3]: In vitro enzymatic release of parent florfenicol from prodrugs in bovine serum. The format is in vitro ADME. The note with it: 37° C. The text has this:
The ability of a prodrug derivative of a parent drug molecule to act efficiently in vivo as a source of the free parent drug determines the utility of a particular prodrug for treatment. The prodrug's ability to release the parent drug in vivo, in the presence of endogenous enzymes, can be determined by measuring the systemic levels of the parent drug after administration of the prodrug to the animal. This releasibility can also be assessed in vitro by measuring the release of the parent drug after mixing with animal whole blood, plasma or serum. Selected benzylic carbonate prodrugs of florfenicol were tested for release of florfenicol after in vitro mixing with bovine serum. […] A general trend of more lipophilic carbonates of florfenicol showing higher rates of degradation and release seems to be present among the compounds tested.
50 microliter of stock solution of carbonate pro-drug (10 mg/mL in DMSO) was added to 5 mL donor bovine serum and mixed. Aliquots of 400 microliter of the resulting solution were transferred into 1.5 mL plastic centrifuge tubes. Each plastic tube was placed into at 37° C. water bath for incubation. Samples were removed at 0, 1, 2, 4, 8, and 24 hours, and after addition of 400 microliter of acetonitrile to stop the reaction, rapidly stirred for 30 seconds. The precipitate was removed by centrifugation on an Eppendorf 5415G at 14000 rpm for 5 minutes. The clear supernatant solution was sampled for the HPLC analysis. The peak area of florfenicol was used to calculate the conversion of the prodrugs.

Series [4] is described as follows: Aqueous solubility. The format is physicochemical. To be noted: aqueous medium (not further specified). As for the experimental part: In some therapeutic applications florfenicol is administered in concentrated organic solution subcutaneously where it is known to form localized depot of the drug which results in the desired sustained release of the drug into the circulation. In such cases solubility of florfenicol in aqueous media represents one of important factors determining the rate of the sustained release. Another important factor affecting the sustained release of florfenicol from the subcutaneous depot site is the concentration of the dosing solution and the solvent composition of the formulation. Apart from the broader range of solvents which can be used for acceptable formulations of florfenicol benzylic carbonate prodrugs these prodrugs also allow a wide range of aqueous solubilities. Solubilities achieved with these prodrugs range from slightly to dramatically lower than that of florfenicol. Reduced aqueous solubilities of such prodrugs may be useful in controlling the rate of dissolution of the prodrug at the subcutaneous depot site and may allow achieving optimized sustained release of the parent drug.

In brackets after ≈: the same amount, converted by molar mass.

Consider `CS(=O)(=O)c1ccc([C@@H](OC(=O)OCCOC(=O)O[C@H](c2ccc(S(C)(=O)=O)cc2)[C@@H](CF)NC(=O)C(Cl)Cl)[C@@H](CF)NC(=O)C(Cl)Cl)cc1` [Example 26, Bis((1R,2S)-2-(2,2-dichloroacetamido)-3-fluoro-1-(4-(methylsulfonyl)phenyl)propyl)ethane-1,2-diyl dicarbonate], for which the melting point (in general, the temperature of the solid-liquid transition) was 110 to 112 °C. For the same compound, in series [1] (15° C.), the “Syringeability measurement: Relative to NUFLOR” value was determined as 0.93. In addition, the “Syringeability measurement: Dripping time” value in series [1] (free flow of 2 mL at 15° C.) came out at 216 ± 8 s. Besides, the “Solubility at selected concentration of contained florfenicol” value (from here on “Solubility at selected concentration”) in series [2] (10% weight/volume florfenicol) is reported as “soluble”. Also, the “Solubility at selected concentration” value in series [2] (20% weight/volume florfenicol) was “soluble”. Also, the “Solubility at selected concentration” value in series [2] (25% weight/volume florfenicol) is listed as “soluble”. Further, the “Solubility at selected concentration” value in series [2] (30% weight/volume florfenicol) is recorded as “soluble”. The “Solubility at selected concentration” value in series [2] (35% weight/volume florfenicol) was “soluble”. The “Solubility at selected concentration” value in series [2] (37% weight/volume florfenicol) is reported as “soluble”. For the same compound, the “Solubility at selected concentration” value in series [2] (40% weight/volume florfenicol) is on record as “soluble”. Further, in series [3] (0 h), the “Florfenicol released from prodrugs (% of total) after treatment with bovine serum” value is given as “BQL”. In addition, in series [3] (1 h), the “Florfenicol released from prodrugs (% of total) after treatment with bovine serum” value is listed as “BQL”. Besides, the solubility – broadly, how much of the substance goes into solution per volume – in series [4] is 45 µg/mL (≈ 54.2 µM).
